PubChem BioAssay (NCI)
Values joined by “and” are separate entries in the source; they are usually repeats but may differ in a detail not shown here. Identical values can stand only once.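 Dose response: 5 concentrations. Exposure: 48 h. Format: 96-well plates. Endpoint: linear interpolation; highest concentration if not reached. GI50 = concentration required for 50% inhibition of growth. At the TGI there is no net growth.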

Key:
Assay in all cases: NCI tumour cell line growth inhibition, 48 h
[1] = test system: MDA-MB-435
[2] = test system: OVCAR-5 ovarian
[3] = test system: M19-MEL melanoma
[4] = test system: MDA-N
[5] = test system: XF 498 CNS
[6] = test system: DMS 273 small cell lung
[7] = test system: M14 melanoma
[8] = test system: SF-295 CNS
[9] = test system: HT29 colon
[10] = test system: PC-3 prostate
[11] = test system: DMS 114 small cell lung
[12] = test system: HS 578T breast
[13] = test system: 786-0 renal
[14] = test system: SK-OV-3 ovarian
[15] = test system: LOX IMVI melanoma
[16] = test system: CAKI-1 renal
[17] = test system: SF-539 CNS
[18] = test system: EKVX NSCLC
[19] = test system: DLD-1 colon
[20] = test system: NCI/ADR-RES ovarian
[21] = test system: HOP-18 NSCLC
[22] = test system: SNB-19 CNS
[23] = test system: SN12K1 renal
[24] = test system: MALME-3M melanoma
[25] = test system: HL-60(TB) leukemia
[26] = test system: ACHN renal
[27] = test system: RXF 393 renal
[28] = test system: RPMI-8226 leukemia
[29] = test system: NCI-H226 lung
[30] = test system: SN12C renal
[31] = test system: SK-MEL-5 melanoma
[32] = test system: SW-620 colon
[33] = test system: P388/ADR leukemia
[34] = test system: NCI-H522 lung

Nc1ncnc2c1ncn2C1OC(CO)C(O)C1O (stereo not drawn)
GI50 [1]: 38.8 µM | TGI [1]: > 100 µM | GI50 [2]: > 100 µM and 257 µM and 34.6 µM | TGI [2]: > 450 µM | TGI [3]: > 450 µM | TGI [4]: > 100 µM | TGI [5]: > 450 µM | TGI [6]: > 450 µM | GI50 [7]: 32.2 µM | TGI [7]: > 100 µM | GI50 [8]: > 100 µM and 215 µM and 32.6 µM | TGI [8]: > 450 µM | TGI [9]: > 450 µM | GI50 [10]: 1440 nM | TGI [10]: > 100 µM and 12.8 µM | TGI [11]: > 437 µM | GI50 [12]: 16.2 µM | TGI [12]: 54.4 µM | GI50 [13]: 9.22 µM | TGI [13]: > 100 µM | GI50 [14]: > 100 µM and 296 µM and 34 µM | TGI [14]: > 450 µM | GI50 [15]: 5.73 µM | TGI [15]: > 450 µM | TGI [16]: > 100 µM and > 450 µM and 74.9 µM | GI50 [17]: 31.6 µM | TGI [17]: > 450 µM | GI50 [18]: > 100 µM and 48.3 µM and 17 µM | TGI [18]: > 100 µM and 152 µM and > 84.3 µM | TGI [19]: > 450 µM | GI50 [20]: 5.06 µM | TGI [21]: > 399 µM | TGI [22]: > 450 µM | TGI [23]: > 450 µM | GI50 [24]: 51.3 µM | TGI [24]: > 422 µM | GI50 [25]: 22.9 µM and 105 µM and 13.8 µM | TGI [25]: > 100 µM and 328 µM and 56 µM | GI50 [26]: 30.4 µM | TGI [26]: > 100 µM and 96.8 µM | GI50 [27]: 22.5 µM | TGI [27]: > 100 µM and 290 µM and 64.1 µM | TGI [28]: > 100 µM and > 450 µM and 60.8 µM | GI50 [29]: > 100 µM and 213 µM and 25.5 µM | TGI [29]: > 373 µM | GI50 [30]: 16 µM | TGI [30]: > 100 µM and 393 µM and 97.6 µM | GI50 [31]: > 100 µM and > 450 µM and 46.2 µM | TGI [31]: > 450 µM | GI50 [32]: 19.3 µM | TGI [32]: > 450 µM | TGI [33]: 144 µM | TGI [34]: > 295 µM
